In patent US7781005B2, “Sweetener composition” (Ajinomoto Co., Inc., priority 2004, dated 2010):

How the values were obtained:
[1] = Decomposition of monatin in solution by ultraviolet light (findings of the inventor); type: physicochemical; details: solution state
[2] = Photodecomposition of monatin in beverage model solution in PET container under D65 fluorescence lamp, HPLC; type: physicochemical; details: D65 lamp 3000 lux, 165 hr
Protocol: Temperature: 25° C. constant temperature room (forced circulation).
HPLC Analysis Conditions:
The pH of a beverage model solution, a (citric acid 2 g, sodium benzoate 0.045 g)/L solution, was adjusted with 8N sodium hydroxide. (2R, 4R)monatin potassium salt (25 mg) and various additives were dissolved in the adjusted beverage model solution (500 mL) and filled in PET containers. […] The solution was simultaneously filled in a 20 ml screw cap vial and left standing for the same time in the same constant temperature room under a light shield. These light exposure solutions and light shield solutions were subjected to HPLC analysis, and photodecomposition rates were calculated by the following formula: The photodecomposition rate (%)=(1−(mass % concentration of monatin in light exposure solution/mass % concentration of monatin in light shield solution))×100 […]

Row | Molecule | decomposition by ultraviolet light [1] | photodecomposition rate ([2]; pH 2.8, 50 ppm) | photodecomposition rate ([2]; pH 3.1, 50 ppm) | photodecomposition rate ([2]; pH 3.5, 50 ppm) | photodecomposition rate ([2]; pH 4, 50 ppm) | photodecomposition rate ([2]; pH 4.5, 50 ppm) | photodecomposition rate ([2]; pH 5.5, 50 ppm) | photodecomposition rate ([2]; pH 6.5, 50 ppm)
1 | (2R,4S)monatin | tend to be more easily decomposed by ultraviolet light than the other isomers | – | – | – | – | – | – | –
2 | N[C@@H](C[C@@](O)(Cc1c[nH]c2ccccc12)C(=O)O)C(=O)O [monatin] | tends to decompose when exposed to ultraviolet light | 52.5% | 45.1% | 27.6% | 15.9% | 10.2% | 4.8% | 4.3%
3 | (2S,4R)monatin | tend to be more easily decomposed by ultraviolet light than the other isomers | – | – | – | – | – | – | –
4 | N[C@@H](Cc1c[nH]c2ccccc12)C(=O)O [Trp, tryptophan, reference compound] | – | 7.3% | 6.0% | 6.2% | 5.5% | 5.4% | 12.5% | 55.1%
